Data: patent publication US20210130406A1, “PEPTIDE, COMPOSITION, AND METHOD FOR TREATING, PREVENTING, OR AMELIORATING MOOD DISORDER” (KYOTO UNIVERSITY, priority 2018, published 2021)

Key:
[1] = system: ddy mouse; test: Tail suspension test (motivation-improving effect), oral peptide; format: in vivo; settings: 30 minutes after administration, vs saline control
Protocol: (§1) Each prepared peptide was administered to a mouse (ddy mouse (5-week-old male, body weight 24 g-28 g)) in each of the following tests, and then the motivation-improving effect was evaluated by a tail suspension test.
(§2) Each mouse was suspended by the tail and hung 30 cm above the floor, 30 minutes after peptide administration. Subsequently, over a period of 6 minutes from the start of the test (0 minute), the time (immobility time) during which the mouse was in an immobility state after initiating escape behavior was measured. The immobility state is known as a “despair state”, and it can be evaluated that the shorter the immobility time, the better the despair state and the greater the motivation. Therefore, substances that provide a motivation-improving effect in this test can be effective in treating, preventing, or ameliorating mood disorders.
(§3) The amino acid sequence represented by SEQ ID NO: 2 was dissolved in physiological saline and orally administered to each mouse in an amount of 0.03, 0.1, or 0.3 mg/kg per body weight (n=5 to 6). As a control, mice were prepared by orally administering physiological saline alone (n=6). Each mouse was subjected to a tail suspension test, and the motivation-improving effect resulting from the peptide of the present invention was evaluated.
as §3, with “Each of the” for “The”, “sequences” for “sequence”, “NOS: 1 to 3” for “NO: 2”, “mice” for “each mouse”, “0.1” for “0.03, 0.1, or 0.3”, “alone to the mice” for “alone”

[2] = system: ddy mouse; test: Tail suspension test, peptide combined with receptor antagonists; format: in vivo; settings: Test 3, FIG. 3
Protocol: as §1, §2
Mice were prepared by orally administering the amino acid sequence represented by SEQ ID NO: 2 in an amount of 0.3 mg/kg and various receptor antagonists in combination thereto (n=5 to 6). Each mouse was subjected to a tail suspension test, and the motivation-improving effect resulting from the peptide of the present invention was evaluated.
(1) SCH23390: dopamine D1 receptor antagonist, and the amount used: 30 μg/kg (2) WAY100135: serotonin 5-HT1A receptor antagonist, and the amount used: 10 mg/kg (3) Bicuculline: GABA-A receptor antagonist, and the amount used: 30 mg/kg

[3] = Test 2, FIG. 2, oral 0.1 mg/kg in physiological saline

Row | Substance | immobility time [1, 3] | immobility time ([2]; oral 0.3 mg/kg combined with Bicuculline (GABA-A receptor antagonist) 30 mg/kg) | immobility time ([2]; oral 0.3 mg/kg combined with SCH23390 (dopamine D1 receptor antagonist) 30 μg/kg) | immobility time ([2]; oral 0.3 mg/kg combined with WAY100135 (serotonin 5-HT1A receptor antagonist) 10 mg/kg) | immobility time ([1]; Test 1, FIG. 1, oral 0.03, 0.1 or 0.3 mg/kg in physiological saline, 6 minutes test, tendency depended on concentration)
1 | QSQSQK [SEQ ID NO: 1] | shorter immobility time than the control |  |  |  | 
2 | QQFLPEGQSQSQK [SEQ ID NO: 2] | shorter immobility time than the control | relatively decreased the immobility time | significantly increased immobility time | relatively decreased the immobility time | shorter than that of the control
3 | QQFLPEG [SEQ ID NO: 3] | not observed to have any decrease in immobility time |  |  |  | 
